≈ marks a conversion by molar mass, not a printed value.
Tests used:
P. aeruginosa MSC17707 = assay: MIC, agar plate dilution method, P. aeruginosa MSC17707; type: cell-based, Pseudomonas aeruginosa; conditions: for minimal inhibitory concentration (MIC): P. aeruginosa MSC17707, AMK-resistant; for MIC: Pseudomonas aeruginosa, MSC17707, P. aeruginosa MSC17707, AMK-resistant, read-out: minimal inhibitory concentration (MIC)
Outline: (§1)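 MIC values, expressed in μg/mL, come from an agar plate dilution assay run as the Japan Society of Chemotherapy describes.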

[1] = test system: K. pneumoniae ATCC BAA-2146; assay: MIC, agar plate dilution method, K. pneumoniae ATCC BAA-2146; type: cell-based, Klebsiella pneumoniae; conditions: for minimal inhibitory concentration (MIC): K. pneumoniae ATCC BAA-2146, NDM-producing strain; for MIC: Klebsiella pneumoniae, ATCCBAA2146, K. pneumoniae ATCC BAA-2146, NDM-producing strain, read-out: minimal inhibitory concentration (MIC)
Outline: as §1

E. faecium ATCC19434 = assay: MIC, agar plate dilution method, E. faecium ATCC19434; type: cell-based, Enterococcus faecium; conditions: for minimal inhibitory concentration (MIC): E. faecium ATCC19434; for MIC: Enterococcus faecium, ATCC19434, E. faecium ATCC19434, read-out: minimal inhibitory concentration (MIC)
Outline: as §1

P. aeruginosa PAO1/GN315 = assay: MIC, agar plate dilution method, P. aeruginosa PAO1/GN315; type: cell-based, Pseudomonas aeruginosa; conditions: for minimal inhibitory concentration (MIC): P. aeruginosa PAO1/GN315, AMK-resistant; for MIC: Pseudomonas aeruginosa, read-out: minimal inhibitory concentration (MIC), P. aeruginosa PAO1/GN315, AMK-resistant
Outline: as §1

S. aureus RN4220/pMS520 = assay: MIC, agar plate dilution method, S. aureus RN4220/pMS520; type: cell-based, Staphylococcus aureus; conditions: for minimal inhibitory concentration (MIC): S. aureus RN4220/pMS520, MRSA; for MIC: Staphylococcus aureus, MRSA, read-out: minimal inhibitory concentration (MIC), S. aureus RN4220/pMS520, MRSA
Outline: as §1

[2] = test system: K. pneumoniae ATCC BAA-1705; assay: MIC, agar plate dilution method, K. pneumoniae ATCC BAA-1705; type: cell-based, Klebsiella pneumoniae; conditions: for minimal inhibitory concentration (MIC): K. pneumoniae ATCC BAA-1705, KPC-producing strain; for MIC: Klebsiella pneumoniae, ATCCBAA1705, K. pneumoniae ATCC BAA-1705, KPC-producing strain, read-out: minimal inhibitory concentration (MIC)
Outline: as §1

S. aureus RN4220 = assay: MIC, agar plate dilution method, S. aureus RN4220; type: cell-based, Staphylococcus aureus; conditions: for minimal inhibitory concentration (MIC): S. aureus RN4220, Sensitive bacterium; for MIC: Staphylococcus aureus, RN4220, S. aureus RN4220, Sensitive bacterium, read-out: minimal inhibitory concentration (MIC)
Outline: as §1

S. marcescens TH-0447 = assay: MIC, agar plate dilution method, S. marcescens TH-0447; type: cell-based, Serratia marcescens; conditions: for minimal inhibitory concentration (MIC): S. marcescens TH-0447, AMK-resistant; for MIC: Serratia marcescens, TH0447, S. marcescens TH-0447, AMK-resistant, read-out: minimal inhibitory concentration (MIC)
Outline: as §1

P. aeruginosa MSC01035 = assay: MIC, agar plate dilution method, P. aeruginosa MSC01035; type: cell-based, Pseudomonas aeruginosa; conditions: P. aeruginosa MSC01035, ABK-resistant; for MIC: Pseudomonas aeruginosa, read-out: minimal inhibitory concentration (MIC)
Outline: as §1

S. marcescens GN6944 = assay: MIC, agar plate dilution method, S. marcescens GN6944; type: cell-based, Serratia marcescens; conditions: S. marcescens GN6944, GM-resistant; for MIC: Serratia marcescens, read-out: minimal inhibitory concentration (MIC)
Outline: as §1

S. aureus MF490 = assay: MIC, agar plate dilution method, S. aureus MF490; type: cell-based, Staphylococcus aureus; conditions: for minimal inhibitory concentration (MIC): S. aureus MF490, MRSA; for MIC: Staphylococcus aureus, MRSA, read-out: minimal inhibitory concentration (MIC)
Outline: as §1

P. aeruginosa PAO1 = assay: MIC, agar plate dilution method, P. aeruginosa PAO1; type: cell-based, Pseudomonas aeruginosa; conditions: for minimal inhibitory concentration (MIC): P. aeruginosa PAO1, Sensitive bacterium; for MIC: Pseudomonas aeruginosa, PAO1, P. aeruginosa PAO1, Sensitive bacterium, read-out: minimal inhibitory concentration (MIC)
Outline: as §1

E. coli JM109/pMW218 = assay: MIC, agar plate dilution method, E. coli JM109/pMW218; type: cell-based, Escherichia coli; conditions: for minimal inhibitory concentration (MIC): E. coli JM109/pMW218, Sensitive bacterium; for MIC: Escherichia coli, JM109/PMW218, E. coli JM109/pMW218, Sensitive bacterium, read-out: minimal inhibitory concentration (MIC)
Outline: as §1

[3] = test system: A. baumannii ATCC BAA-1710; assay: MIC, agar plate dilution method, A. baumannii ATCC BAA-1710; type: cell-based, Acinetobacter baumannii; conditions: for minimal inhibitory concentration (MIC): A. baumannii ATCC BAA-1710, MDRA; for MIC: Acinetobacter baumannii, ATCCBAA1710, A. baumannii ATCC BAA-1710, MDRA, read-out: minimal inhibitory concentration (MIC)
Outline: as §1

Row | SMILES | minimal inhibitory concentration (MIC) (P. aeruginosa MSC17707) [µg/mL] | minimal inhibitory concentration (MIC) [1] [µg/mL] | minimal inhibitory concentration (MIC) (E. faecium ATCC19434) [µg/mL] | minimal inhibitory concentration (MIC) (P. aeruginosa PAO1/GN315) [µg/mL] | minimal inhibitory concentration (MIC) (S. aureus RN4220/pMS520) [µg/mL] | minimal inhibitory concentration (MIC) [2] [µg/mL] | minimal inhibitory concentration (MIC) (S. aureus RN4220) [µg/mL] | minimal inhibitory concentration (MIC) (S. marcescens TH-0447) [µg/mL] | minimal inhibitory concentration (MIC) (P. aeruginosa MSC01035) [µg/mL] | minimal inhibitory concentration (MIC) (S. marcescens GN6944) [µg/mL] | minimal inhibitory concentration (MIC) (S. aureus MF490) [µg/mL] | minimal inhibitory concentration (MIC) (P. aeruginosa PAO1) [µg/mL] | minimal inhibitory concentration (MIC) (E. coli JM109/pMW218) [µg/mL] | minimal inhibitory concentration (MIC) [3] [µg/mL] | also measured
1 | CNC1C(OC2OC(CO)C(N)C(O)C2O)OC2CC(N)C(OC3C(N)CC(N)C(O)C3N)OC2C1O (stereo not drawn) [Compound D2, 5-amino-5-deoxy-5-epiapramycin] | 8 (≈ 14.9 µM) | 2 (≈ 3.71 µM) | 32 (≈ 59.4 µM) | 4 (≈ 7.43 µM) | 4 (≈ 7.43 µM) | 2 (≈ 3.71 µM) | 4 (≈ 7.43 µM) | 8 (≈ 14.9 µM) | 4 (≈ 7.43 µM) | 4 (≈ 7.43 µM) | 8 (≈ 14.9 µM) | 4 (≈ 7.43 µM) | 2 (≈ 3.71 µM) | 8 (≈ 14.9 µM) | –
2 | CNC1C(O[C@H]2OC(CO)[C@@H](NC(=O)[C@H](C)N)[C@H](O)C2O)O[C@H]2CC(N)[C@@H](O[C@@H]3C(N)C[C@@H](N)C(O)[C@H]3O)OC2C1O (stereo partly drawn) [Compound V1-c, 4″-N-(L-alanyl)apramycin] | 8 (≈ 13.1 µM) | 2 (≈ 3.28 µM) | 32 (≈ 52.4 µM) | 8 (≈ 13.1 µM) | 4 (≈ 6.55 µM) | 4 (≈ 6.55 µM) | 4 (≈ 6.55 µM) | 16 (≈ 26.2 µM) | 8 (≈ 13.1 µM) | 8 (≈ 13.1 µM) | 16 (≈ 26.2 µM) | 16 (≈ 26.2 µM) | 2 (≈ 3.28 µM) | 8 (≈ 13.1 µM) | –
3 | CNC1C(OC2OC(CO)C(N)C(O)C2O)OC2CC(N)C(OC3C(N)CC(N)C(O)C3O)OC2C1O (stereo not drawn) [Compound I3, 2″,3″-diepiapramycin] | 32 (≈ 59.3 µM) | 4 (≈ 7.41 µM) | 32 (≈ 59.3 µM) | 32 (≈ 59.3 µM) | 8 (≈ 14.8 µM) | 4 (≈ 7.41 µM) | 8 (≈ 14.8 µM) | 32 (≈ 59.3 µM) | 64 (≈ 119 µM) | 16 (≈ 29.7 µM) | 32 (≈ 59.3 µM) | 16 (≈ 29.7 µM) | 4 (≈ 7.41 µM) | 16 (≈ 29.7 µM) | –
4 | CNC1C(O[C@H]2OC(CO)[C@@H](NC(=O)[C@@H](O)CN)[C@H](O)C2O)O[C@H]2C[C@H](N)[C@@H](O[C@@H]3C(N)C[C@@H](N)C(O)[C@H]3O)OC2C1O (stereo partly drawn) [Compound V1-n, 5-epi-4″-N-(L-isoseryl)apramycin] | – | – | – | – | – | – | – | – | – | – | – | – | – | – | MIC (P. aeruginosa MSC17707): 2 µg/mL (≈ 3.19 µM); MIC [1]: 1 µg/mL (≈ 1.6 µM); MIC (E. faecium ATCC19434): 16 µg/mL (≈ 25.5 µM); MIC (P. aeruginosa PAO1/GN315): 4 µg/mL (≈ 6.38 µM); MIC (S. aureus RN4220/pMS520): 2 µg/mL (≈ 3.19 µM); MIC [2]: 1 µg/mL (≈ 1.6 µM); MIC (S. aureus RN4220): 2 µg/mL (≈ 3.19 µM); MIC (S. marcescens TH-0447): 8 µg/mL (≈ 12.8 µM); MIC (P. aeruginosa MSC01035): 4 µg/mL (≈ 6.38 µM); MIC (S. marcescens GN6944): 8 µg/mL (≈ 12.8 µM); MIC (S. aureus MF490): 8 µg/mL (≈ 12.8 µM); MIC (P. aeruginosa PAO1): 2 µg/mL (≈ 3.19 µM); MIC (E. coli JM109/pMW218): 0.5 µg/mL (≈ 0.798 µM); MIC [3]: 8 µg/mL (≈ 12.8 µM)
5 | CN[C@@H]1[C@@H](O[C@H]2O[C@H](CO)[C@@H](NC(=O)[C@H](N)CO)[C@H](O)[C@H]2O)O[C@H]2C[C@@H](N)[C@@H](O[C@H]3[C@H](O)[C@@H](O)[C@H](N)C[C@@H]3N)O[C@@H]2[C@@H]1O [Compound V1-f, 4″-N-(D-seryl)apramycin] | 8 (≈ 12.8 µM) | 2 (≈ 3.19 µM) | 64 (≈ 102 µM) | 8 (≈ 12.8 µM) | 8 (≈ 12.8 µM) | 4 (≈ 6.38 µM) | 8 (≈ 12.8 µM) | 16 (≈ 25.5 µM) | 8 (≈ 12.8 µM) | 16 (≈ 25.5 µM) | 32 (≈ 51.1 µM) | 4 (≈ 6.38 µM) | 2 (≈ 3.19 µM) | 8 (≈ 12.8 µM) | –
6 | NCC[C@H](O)C(=O)N[C@@H]1C[C@H](N)[C@@H](O[C@H]2O[C@H](CN)CC[C@H]2N)[C@H](O)[C@H]1O[C@H]1O[C@H](CO)[C@@H](O)[C@H](N)[C@H]1O [ABK, arbekacin, reference compound] | – | – | – | – | – | – | – | – | – | – | – | – | – | – | MIC (P. aeruginosa MSC17707): 4 µg/mL (≈ 7.24 µM); MIC [1]: > 64 µg/mL; MIC (E. faecium ATCC19434): 8 µg/mL (≈ 14.5 µM); MIC (P. aeruginosa PAO1/GN315): 8 µg/mL (≈ 14.5 µM); MIC (S. aureus RN4220/pMS520): 1 µg/mL (≈ 1.81 µM); MIC [2]: 16 µg/mL (≈ 29 µM); MIC (S. aureus RN4220): 1 µg/mL (≈ 1.81 µM); MIC (S. marcescens TH-0447): 64 µg/mL (≈ 116 µM); MIC (P. aeruginosa MSC01035): > 64 µg/mL; MIC (S. marcescens GN6944): 8 µg/mL (≈ 14.5 µM); MIC (S. aureus MF490): 64 µg/mL (≈ 116 µM); MIC (P. aeruginosa PAO1): 2 µg/mL (≈ 3.62 µM); MIC (E. coli JM109/pMW218): 0.5 µg/mL (≈ 0.905 µM); MIC [3]: 32 µg/mL (≈ 57.9 µM)
7 | CNC1C(O[C@H]2OC(CO)[C@@H](NC)[C@H](O)C2O)O[C@H]2CC(N)[C@@H](O[C@@H]3C(N)C[C@@H](N)C(O)[C@H]3O)OC2C1O (stereo partly drawn) [Compound S1-f, 5-epi-4″-N-methylapramycin] | 8 (≈ 14.5 µM) | 1 (≈ 1.81 µM) | 16 (≈ 28.9 µM) | 4 (≈ 7.23 µM) | 2 (≈ 3.61 µM) | 2 (≈ 3.61 µM) | 2 (≈ 3.61 µM) | 8 (≈ 14.5 µM) | 8 (≈ 14.5 µM) | 4 (≈ 7.23 µM) | 8 (≈ 14.5 µM) | 4 (≈ 7.23 µM) | 1 (≈ 1.81 µM) | 8 (≈ 14.5 µM) | –
8 | CN[C@@H]1[C@@H](O[C@H]2O[C@H](CO)[C@@H](N)[C@H](O)[C@H]2O)O[C@H]2C[C@@H](N)[C@@H](O[C@@H]3[C@@H](N)C[C@@H](N)C[C@@H]3O)O[C@@H]2[C@@H]1O [Compound C6, 6-deoxy-5-epiapramycin] | 8 (≈ 15.3 µM) | 1 (≈ 1.91 µM) | 16 (≈ 30.6 µM) | 4 (≈ 7.64 µM) | 4 (≈ 7.64 µM) | 2 (≈ 3.82 µM) | 4 (≈ 7.64 µM) | 8 (≈ 15.3 µM) | 8 (≈ 15.3 µM) | 4 (≈ 7.64 µM) | 8 (≈ 15.3 µM) | 4 (≈ 7.64 µM) | 1 (≈ 1.91 µM) | 8 (≈ 15.3 µM) | –
9 | CNC1C(OC2CC(O)C(N)C(CO)O2)OC2CC(N)C(OC3C(N)CC(N)C(O)C3O)OC2C1O (stereo not drawn) [Compound Y3, 2″-deoxy-5,3″-diepiapramycin] | 8 (≈ 15.3 µM) | 2 (≈ 3.82 µM) | 8 (≈ 15.3 µM) | 8 (≈ 15.3 µM) | 2 (≈ 3.82 µM) | 2 (≈ 3.82 µM) | 2 (≈ 3.82 µM) | 8 (≈ 15.3 µM) | 16 (≈ 30.6 µM) | 4 (≈ 7.64 µM) | 4 (≈ 7.64 µM) | 4 (≈ 7.64 µM) | 1 (≈ 1.91 µM) | 8 (≈ 15.3 µM) | –

Source: patent US11135234B2, “Effective aminoglycoside antibiotic for multidrug-resistant bacteria” (MICROBIAL CHEMISTRY RESEARCH FOUNDATION, priority 2015, dated 2021)
